Measurements as given in patent EP0441252B1, “Alkaline phosphatase enzymes having improved specific activity for use in indicator reagents” (ABBOTT LABORATORIES, priority 1990, dated 1991).

What was measured:
Assay in all cases: Kinetic constants (Km) of purified alkaline phosphatase
[1] = target: E. coli alkaline phosphatase variant pMA116, Lys^328 > Arg / Val^99 > Ala (Escherichia coli, UniProt P00634, form not given/K350R/V121A); settings: Table 1; substrate not given
[2] = target: E. coli alkaline phosphatase variant pMA115, Asp^101 > Ser (Escherichia coli, UniProt P00634, D123S, form not given); settings: Table 1; substrate not given
[3] = test system: O=[N+]([O-])c1ccc(OP(=O)(O)O)cc1; format: biochemical, E. coli; settings: other: Table 1; substrate not given; pH 8.0; 25.0 °C

Chain of E. coli alkaline phosphatase variant pMA115, Asp^101 > Ser (P00634 22-471 D123S): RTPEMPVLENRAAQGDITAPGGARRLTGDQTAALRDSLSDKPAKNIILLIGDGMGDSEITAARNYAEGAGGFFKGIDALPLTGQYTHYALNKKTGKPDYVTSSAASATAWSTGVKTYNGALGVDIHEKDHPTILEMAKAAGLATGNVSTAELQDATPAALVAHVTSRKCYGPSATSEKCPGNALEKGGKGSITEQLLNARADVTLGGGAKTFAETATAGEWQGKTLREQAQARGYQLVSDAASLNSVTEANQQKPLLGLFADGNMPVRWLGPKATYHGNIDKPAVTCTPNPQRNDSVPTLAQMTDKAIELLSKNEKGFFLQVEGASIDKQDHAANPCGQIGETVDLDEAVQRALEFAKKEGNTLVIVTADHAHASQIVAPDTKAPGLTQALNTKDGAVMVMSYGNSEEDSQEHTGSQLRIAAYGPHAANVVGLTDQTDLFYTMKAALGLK
Chain of E. coli alkaline phosphatase variant pMA116, Lys^328 > Arg / Val^99 > Ala (P00634 22-471 K350R/V121A): as the sequence (P00634 22-471 D123S) above, with V100A, S102D, K329R counted along it

Row | Molecule | Km [1] | Km [2] | Km [3]
1 | O=[N+]([O-])c1ccc(OP(=O)(O)O)cc1 [pNPP, p-nitrophenyl phosphate] | 74 µM | 56 µM | –
2 | E. coli alkaline phosphatase variant pMA110, Val^377 > Ala / Ser^415 > Gly (Escherichia coli K-12; S437G/V399A) | – | – | 23 µM
